Assay results published in patent US12410160B2 (Gilead Sciences, Inc., priority 2021, dated 2025).
Where two headings read alike, the source gives them in different places.

Legend:
human KHK-C = human KHK-C (Homo sapiens (Human), UniProt P50053); assay: KHK Biochemical Assay (IC50), ADP-Glo, KHK-C; settings: average of at least two separate assays
Summary of the method: (§1)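 His-tagged enzyme expressed in BL21 (DE3), Ni-NTA purified. Compounds, serially diluted 1:3 in DMSO, pre-incubated 30 min with enzyme in 50 mM Hepes pH 7.4, 140 mM KCl, 5 mM MgCl2, 0.01% Triton-X, then ATP and fructose added; 4 h at room temperature. ADP formation read by ADP-Glo luminescence.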

HepG2 cells = assay: F1P Cell-Based Assay (EC50), 13C6-fructose-1-phosphate in HepG2 cells (cell culture medium or 50% human plasma)
[1] = biological target: KHK-C expressed in NRK-52E cells (Homo sapiens (Human), UniProt P50053); assay: KHK-C Cell-based Assay (EC50), NRK CTG, fructose-mediated ATP-depletion
human KHK-A = human KHK-A (Homo sapiens (Human), UniProt P50053); assay: KHK Biochemical Assay (IC50), ADP-Glo, KHK-A; settings: average of at least two separate assays
Summary of the method: as §1

[2] = Homo sapiens, HepG2, HepG2 cells, 50% human plasma, read-out: F1P 50% HP EC50
[3] = Homo sapiens, HepG2, read-out: F1P 10% FBS EC50, HepG2 cells, cell culture medium (10% FBS)

KHK-C expressed in NRK-52E cells, sequence (P50053 whole entry): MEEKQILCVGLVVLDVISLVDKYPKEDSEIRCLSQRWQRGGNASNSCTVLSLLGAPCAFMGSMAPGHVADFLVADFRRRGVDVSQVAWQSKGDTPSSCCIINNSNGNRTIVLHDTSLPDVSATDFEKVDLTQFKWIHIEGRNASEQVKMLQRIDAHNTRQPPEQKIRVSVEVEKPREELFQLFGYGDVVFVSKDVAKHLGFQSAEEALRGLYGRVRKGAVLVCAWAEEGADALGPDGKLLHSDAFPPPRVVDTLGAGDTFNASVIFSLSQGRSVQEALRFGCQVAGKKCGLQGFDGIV
human KHK-C, sequence (P50053 whole entry): as above
human KHK-A, sequence (P50053 other isoform, or with tags, fused parts or gaps): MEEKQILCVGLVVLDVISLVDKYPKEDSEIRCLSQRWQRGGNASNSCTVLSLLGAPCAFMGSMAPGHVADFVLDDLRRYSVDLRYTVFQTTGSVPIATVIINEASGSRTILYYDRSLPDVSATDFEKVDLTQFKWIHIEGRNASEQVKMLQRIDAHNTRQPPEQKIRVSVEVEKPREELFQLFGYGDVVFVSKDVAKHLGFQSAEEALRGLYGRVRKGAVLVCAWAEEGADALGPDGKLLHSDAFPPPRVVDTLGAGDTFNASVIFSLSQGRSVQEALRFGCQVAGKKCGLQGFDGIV

SMILES	IC50 (human KHK-C; ADP-Glo) [nM]	EC50 [1] [nM]	IC50 (human KHK-A; ADP-Glo) [nM]	other results
C[C@H]1[C@H](O)CN1c1nc(-c2ccc3c(c2)O[C@@H](CO)CNC3=O)c2c(n1)C(F)(F)CC2 [Example 808, (R)-8-(7,7-difluoro-2-((2S,3R)-3-hydroxy-2-methylazetidin-1-yl)-6,7-dihydro-5H-cyclopenta[d]pyrimidin-4-yl)-2-(hydroxymethyl)-3,4-dihydrobenzo[f][1,4]oxazepin-5(2H)-one]	6.3	696		EC50 (HepG2 cells; [2]): 41.8 nM; EC50 (HepG2 cells; [3]): 38.6 nM
C[C@H]1[C@H](O)CN1c1nc(-c2ccc3c(c2)COCC32CCC(=O)N2)c2c(n1)C(F)(F)CC2 (stereo partly shown) [Example 639]		35		EC50 (HepG2 cells; [2]): 190 nM; EC50 (HepG2 cells; [3]): 66.3 nM
C[C@H]1[C@H](O)CN1c1nc(-c2ccc3c(c2)C(C)(C)C[C@@H]3NS(C)(=O)=O)c2c(n1)C(F)(F)CC2 (single isomer, unassigned) [Example 632]		10.3		IC50 (human KHK-C): 0.5 nM; EC50 (HepG2 cells; [2]): > 500 nM; EC50 (HepG2 cells; [3]): 10.2 nM
COc1ccc(-c2nc(N3CC[C@@H]3C(F)(F)F)nc3c2CCC3(F)F)cc1[S@@](C)(=N)=O [Example 825, (S)-(5-(7,7-difluoro-2-((R)-2-(trifluoromethyl)azetidin-1-yl)-6,7-dihydro-5H-cyclopenta[d]pyrimidin-4-yl)-2-methoxyphenyl)(imino)(methyl)-λ^6-sulfanone]		5.6		EC50 (HepG2 cells; [2]): 2.3 nM; EC50 (HepG2 cells; [3]): 0.9 nM
C[C@H]1CCN1c1nc(-c2ccc(C3(N)CC(F)(F)C3)cc2)c2c(n1)C(F)(F)CC2 [Example 648, 1-[4-[7,7-difluoro-2-[(2S)-2-methylazetidin-1-yl]-5,6-dihydrocyclopenta[d]pyrimidin-4-yl]phenyl]-3,3-difluoro-cyclobutanamine]		7.1		IC50 (human KHK-C): 1.2 nM; EC50 (HepG2 cells; [2]): 27.6 nM; EC50 (HepG2 cells; [3]): 3.9 nM
C[C@H]1CCN1c1nc(-c2ccc3c(c2)OCC3NS(C)(=O)=O)c2c(n1)C(F)(F)CC2 (stereo partly drawn) [Example 758, N-[6-[7,7-difluoro-2-[(2S)-2-methylazetidin-1-yl]-5,6-dihydrocyclopenta[d]pyrimidin-4-yl]-2,3-dihydrobenzofuran-3-yl]methanesulfonamide]		2.2		IC50 (human KHK-C): 0.5 nM; EC50 (HepG2 cells; [2]): 41 nM; EC50 (HepG2 cells; [3]): 6.5 nM
C[C@H]1CCN1c1nc(-c2ccc3c(c2)OC[C@@H]3NS(C)(=O)=O)c2c(n1)C(F)(F)CC2 [Example 528, N—((R)-6-(7,7-difluoro-2-((S)-2-methylazetidin-1-yl)-6,7-dihydro-5H-cyclopenta[d]pyrimidin-4-yl)-2,3-dihydrobenzofuran-3-yl)methanesulfonamide]		3.4		IC50 (human KHK-C): 0.2 nM; EC50 (HepG2 cells; [2]): 50.2 nM; EC50 (HepG2 cells; [3]): 2.5 nM
C[C@H]1[C@H](O)CN1c1nc(-c2ccc3c(c2)[S@@](=N)(=O)CCO3)c2c(n1)C(F)(F)CC2 (single isomer, unassigned) [Example 821]	5			EC50 (HepG2 cells; HepG2 cells, 50% human plasma, read-out: F1P 50% HP EC50): 75.4 nM; EC50 (HepG2 cells; read-out: F1P 10% FBS EC50, HepG2 cells, cell culture medium (10% FBS)): 20 nM; EC50 ([1]; read-out: NRK CTG EC50, NRK-52E cells, Cell-Titer Glo, 25 mM fructose, 48 hours): 42.2 nM
C[C@H]1CCN1c1nc(-c2ccc([C@@H](N)C(F)F)cc2)c2c(n1)C(F)(F)CC2 [Example 649, (1R)-1-[4-[7,7-difluoro-2-[(2S)-2-methylazetidin-1-yl]-5,6-dihydrocyclopenta[d]pyrimidin-4-yl]phenyl]-2,2-difluoro-ethanamine]		8.6		IC50 (human KHK-C): 2.4 nM; EC50 (HepG2 cells; [2]): 57 nM; EC50 (HepG2 cells; [3]): 12.9 nM
C[C@H]1CCN1c1nc2c(c(-c3ccc4c(c3)[C@]3(C[C@H]3c3nc[nH]n3)C(=O)N4)n1)CCC2 [Example 414, (1R,2R)-5′-(2-((S)-2-methylazetidin-1-yl)-6,7-dihydro-5H-cyclopenta[d]pyrimidin-4-yl)-2-(1H-1,2,4-triazol-3-yl)spiro[cyclopropane-1,3′-indolin]-2′-one]		> 5000		IC50 (human KHK-C): 138 nM; IC50 (human KHK-A): 397 nM
C[C@H]1CCN1c1nc2c(c(-c3ccc(CO)s3)n1)CCC2 [Example 375, [5-[2-[(2S)-2-methylazetidin-1-yl]-6,7-dihydro-5H-cyclopenta[d]pyrimidin-4-yl]-2-thienyl]methanol]	18.2	84	30.3	
C[C@H]1CCN1c1nc2c(c(-c3ccc(CN4CCC4)cc3)n1)CCC2 [Example 366, 4-[4-(azetidin-1-ylmethyl)phenyl]-2-[(2S)-2-methylazetidin-1-yl]-6,7-dihydro-5H-cyclopenta[d]pyrimidine]	86.5	75.4	54	
C[C@H]1CCN1c1nc2c(c(-c3cccc(C(N)C(F)(F)F)c3)n1)CCC2 (stereo partly drawn) [Example 246, 2,2,2-trifluoro-1-[3-[2-[(2S)-2-methylazetidin-1-yl]-6,7-dihydro-5H-cyclopenta[d]pyrimidin-4-yl]phenyl]ethanamine]	163	422	360	
Cc1ncc(-c2nc(N3CC[C@@H]3C)nc3c2CCC3)s1 [Example 34, (S)-2-methyl-5-(2-(2-methylazetidin-1-yl)-6,7-dihydro-5H-cyclopenta[d]pyrimidin-4-yl)thiazole]	64.5	142	52.7	
NS(=O)(=O)c1cccc(-c2nc(N3CC[C@@H]3CO)nc3c2CCC3)c1 [Example 92, (R)-3-(2-(2-(hydroxymethyl)azetidin-1-yl)-6,7-dihydro-5H-cyclopenta[d]pyrimidin-4-yl)benzenesulfonamide]	93	368	82.3	
C[C@H]1CCN1c1nc2c(c(-c3cccc(NS(=O)(=O)CCC(=O)O)c3)n1)CCC2 [Example 83, (S)-3-(N-(3-(2-(2-methylazetidin-1-yl)-6,7-dihydro-5H-cyclopenta[d]pyrimidin-4-yl)phenyl)sulfamoyl)propanoic acid]	10.3	> 5000	32.5	
C[C@H]1CCN1c1nc2c(c(-c3ccc4ccc(=O)n(CCC(=O)O)c4c3)n1)CCC2 [Example 133, (S)-3-(7-(2-(2-methylazetidin-1-yl)-6,7-dihydro-5H-cyclopenta[d]pyrimidin-4-yl)-2-oxoquinolin-1(2H)-yl)propanoic acid]	141	> 5000	236	
C[C@H]1CCN1c1nc2c(c(-c3cc4cc(C(=O)O)ccc4[nH]3)n1)CCC2 [Example 153, (S)-2-(2-(2-methylazetidin-1-yl)-6,7-dihydro-5H-cyclopenta[d]pyrimidin-4-yl)-1H-indole-5-carboxylic acid]	66.6	4000	186	
C[C@H]1CCN1c1nc2c(c(-c3ccc4c(c3)CC(=O)N4)n1)CCC2 [Example 248, 5-[2-[(2S)-2-methylazetidin-1-yl]-6,7-dihydro-5H-cyclopenta[d]pyrimidin-4-yl]indolin-2-one]	> 100	154	79.6	
C[C@H]1CCN1c1nc2c(c(-c3ccc(CO)c(F)c3)n1)CCC2 [Example 370, [2-fluoro-4-[2-[(2S)-2-methylazetidin-1-yl]-6,7-dihydro-5H-cyclopenta[d]pyrimidin-4-yl]phenyl]methanol]	81.7	117	76.3	
C[C@H]1[C@H](F)CN1c1nc2c(c(-c3cccc(CNS(C)(=O)=O)c3)n1)CCC2 [Example 284]	16.4	55.7	21.8	
C[C@H]1CCN1c1nc2c(c(-c3ccc(C(N)=O)cc3)n1)CC2 [Example 124, (S)-4-(3-(2-methylazetidin-1-yl)-2,4-diazabicyclo[4.2.0]octa-1,3,5-trien-5-yl)benzamide]	328	973	535	
COc1c(C)cc(-c2nc(N3C[C@@H](O)[C@@H]3C)nc3c2CCC3(F)F)cc1S(C)(=N)=O (stereo partly drawn) [Example 722, (5-(7,7-difluoro-2-((2S,3R)-3-hydroxy-2-methylazetidin-1-yl)-6,7-dihydro-5H-cyclopenta[d]pyrimidin-4-yl)-2-methoxy-3-methylphenyl)(imino)(methyl)-λ^6-sulfanone]		25.7		IC50 (human KHK-C): 5 nM; IC50 (human KHK-A): 8 nM
CC(=O)Nc1cccc(-c2nc(N3C[C@@H](O)[C@@H]3C)nc3c2CCC3)c1 [Example 41]	125	602	102	
C[C@H]1CCN1c1nc2c(c(-c3ccc4c(c3)CCO4)n1)CCC2 [Example 274, (S)-4-(2,3-dihydrobenzofuran-5-yl)-2-(2-methylazetidin-1-yl)-6,7-dihydro-5H-cyclopenta[d]pyrimidine]	142	205	204	
C[C@H]1CCN1c1nc2c(c(-c3ccc(C#N)c(Cl)c3)n1)CCC2 [Example 314, (S)-2-chloro-4-(2-(2-methylazetidin-1-yl)-6,7-dihydro-5H-cyclopenta[d]pyrimidin-4-yl)benzonitrile]	1940	4490	2020	
C[C@H]1CCN1c1nc2c(c(-c3ccc4c(c3)C3(CCC4)CC3C(=O)O)n1)CCC2 (stereo partly drawn) [Example 148, 7′-(2-((S)-2-methylazetidin-1-yl)-6,7-dihydro-5H-cyclopenta[d]pyrimidin-4-yl)-3′,4′-dihydro-2′H-spiro[cyclopropane-1,1′-naphthalene]-2-carboxylic acid]	59.9	653	84	
